Results on three compounds are retold here after patent publication US6573286B1, “2-(2,6-disubstituted phenyl)-4-aryl-5-alkyl-1,3-oxazoline compounds” (Dow AgroSciences LLC, priority 2002, dated 2003).

Common to all, as to type: in vivo
Experiment [1] concerns tobacco budworm (Heliothis virescens). Nature of the experiment: Insecticidal test for tobacco budworm, treated cotton cotyledon leaf disc. Particulars: Heliothis virescens, foliar, 120 h, 2nd instar larvae on dipped cotton cotyledon discs, 5 days, read-out: TBW: activity against tobacco budworm (% Control rating). As to the method:
(§1) Insecticidal test for tobacco budworm (Heliothis virescens), beet armyworm (Spodoptera exigua), and cabbage looper (Trichoplusia ni). To prepare test solution, the test compound was formulated at 400 ppm in 7.5 mL of 2 acetone:1 tap water. 250 μL of the test solution was pipetted upon the surface of 8 mL of lepidopteran diet (modified Shorey) contained in each of five one-ounce plastic cups (one cup=1 replication). […] After air-drying, the treated leaf discs were placed individually into one-ounce plastic cups. Each dried, treated cotton cotyledon disc was infested with a 2nd instar tobacco budworm larva, and each cabbage leaf disc was infested with a 2nd instar cabbage looper larva. Cups containing the treated substrates and larvae were capped and then held in a growth chamber at 25° C., 50-55% RH, and 14 hr light:10 hr dark for 5 days.

Experiment [2] relates to beet armyworm (Spodoptera exigua). Description: Insecticidal test for beet armyworm, treated lepidopteran diet. Conditions: Spodoptera exigua, 120 h, 2nd instar larvae on treated diet, 5 days, read-out: BAW: activity against beet armyworm (% Control rating). As to the method: as §1
Experiment [3] concerns cabbage looper (Trichoplusia ni). Description: Insecticidal test for cabbage looper, treated cabbage leaf disc. Particulars: Trichoplusia ni, foliar, 120 h, 2nd instar larvae on dipped cabbage leaf discs, 5 days, read-out: CL: activity against cabbage looper (% Control rating). As to the method:
as §1

The test system of experiment [4] is cotton aphid (Aphis gossypii). Description: Insecticidal test for cotton aphid, sprayed squash cotyledons. Conditions: 50 ppm spray, graded after 3 days. The method, then:
Insecticidal test for cotton aphid (Aphis gossypii) To prepare spray solutions, 1 mg of each test compound was dissolved into 1 mL of a 90:10 acetone:ethanol solvent. This 1 mL of chemical solution was added to 19 mL of water containing 0.05% Tween 20 surfactant to produce a 50 ppm spray solution. Squash cotyledons were infested with cotton aphid (all life stages) 16-20 hours prior to application of spray solution. The solution was sprayed on both sides of each infested squash cotyledon (0.5 mL×2 each side) with a sweeping action until runoff. The plants were allowed to air dry and held for 3 days in a controlled room at 26° C. and 40% RH after which time the test was graded. Grading was by actual count using a dissecting microscope and comparison of test counts to the untreated check.

Experiment [5] deals with two-spotted spider mite (Tetranychus urticae). Nature of the experiment: Insecticidal test for two-spotted spider mite, ovicide method. Particulars: Tetranychus urticae, foliar, 144 h, ovicide method on cotton leaf discs, 6 days, read-out: SM: activity against two-spotted spider mite (% Control rating). As to the method:
Insecticidal test for two-spotted spider mite (Tetranychus urticae) Ovicide Method: Ten adult female two-spotted spider mites were placed on eight 2.2 cm leaf discs of cotton leaf, allowed to oviposit over 24 hours, and thereafter removed. […] Discs were placed on an agar substrate and held at 24° C. and 90% RH for 6 days.

The subject of experiment [6] is Sweetpotato Whitefly (Bemisia tabacia). Nature of the experiment: Insecticidal test for Sweetpotato Whitefly, sprayed cotton plants. Particulars: Bemisia, 312 h, 200 ppm spray, large nymphs counted after 13 days, read-out: WF: activity against whitefly (% Control rating). The method, then: Insecticidal test for Sweetpotato Whitefly (Bemisia tabacia) Four mg of each test compound were dissolved by adding 4 mL of a 90:10 acetone:ethanol solvent mixture to the vial containing the sample compound. This solution was added to 16 mL of water containing 0.05% Tween 20 surfactant to produce 20 mL of a 200 ppm spray solution. Five-week-old cotton plants reared in a greenhouse were stripped of all foliage except for the two uppermost true leaves that were greater than 5 cm in diameter. These plants were then placed into a laboratory colony of whiteflies for two days for oviposition by the colony females. All whiteflies were then removed from the test plants with pressurized air. The spray solution was then applied to the test plants with a hand-held syringe fitted with hollow cone nozzle. One mL spray solution was applied to each leaf top and bottom for a total of 4 mL per plant. Four replications of each test compound utilized a total of 16 mL spray solution. Plants were air dried and then placed in a holding chamber (28° C. and 60% RH) for 13 days. Compound efficacy was evaluated by counting, under an illuminated magnifying glass, the number of large nymphs (3rd-4th instar) per leaf. Percent control based on reduction of large nymphs of a test compound compared to solution-only (no test compound) sprayed plants is reported in Table 1-8.

Turning to `C[C@@H]1OC(c2c(F)cccc2F)=N[C@@H]1c1ccc(-c2ccc(OC(F)(F)F)cc2)cc1` (stereo in doubt) [Compound 51, (4R,5S)-2-(2,6-difluorophenyl)-5-methyl-4-[4′-(trifluoromethoxy)-1,1′-biphenyl-4-yl]-4,5-dihydro-1,3-oxazole], the values for the pest or weed control at 400 ppm in experiment [1], in experiment [2] and in experiment [3] were 80 to 89%, 90 to 100% and 90 to 100%, respectively. Moreover, the “CA: activity against cotton aphid (% Control rating)” value (“CA: activity … (% Control rating)” below) in experiment [4] is “F (less than 50)”. In experiment [5], the pest or weed control at 2.5 ppm was 90 to 100%.

Take `C[C@H]1OC(c2c(F)cccc2F)=N[C@@H]1c1ccc(I)cc1` (racemic) [Compound 22, (4R,5R)- and (4S,5S)-4-(4-iodophenyl)-2-(2,6-difluorophenyl)-5-methyl-4,5-dihydro-1,3-oxazole]: in experiment [4], the “CA: activity … (% Control rating)” value is reported as “A (90-100)”. The pest or weed control at 2.5 ppm in experiment [5] fell in the range of 90 to 100%.

For `C[C@@H]1OC(c2c(F)cccc2F)=N[C@@H]1c1ccc(I)cc1` (racemic) [Compound 1, (4R,5S)- and (4S,5R)-4-(4-iodophenyl)-2-(2,6-difluorophenyl)-5-methyl-4,5-dihydro-1,3-oxazole], the values for the pest or weed control at 400 ppm in experiment [1], in experiment [2] and in experiment [3] were less than 50%, less than 50% and 60 to 69%, respectively. In addition, the “CA: activity … (% Control rating)” value in experiment [4] is listed as “A (90-100)”. Moreover, in experiment [5], the pest or weed control at 2.5 ppm is 90 to 100%. Besides, in experiment [6], the pest or weed control at 200 ppm is 60 to 69%.
